# Laboratory results reported in ChEMBL document CHEMBL1139215, “Discovery of aminofurazan-azabenzimidazoles as inhibitors of Rho-kinase with high kinase selectivity and antihypertensive activity” (J Med Chem, 2007).
# Active and inactive are the calls of the source. The calls are words filed in the database; no cut-off is given here.
# Tests used:
# Homo sapiens [1] = species on record: Homo sapiens; experiment: Selectivity for ROCK1 over RSK1
# Homo sapiens [2] = species on record: Homo sapiens; experiment: Selectivity for ROCK1 over GSK3-beta
# Homo sapiens [3] = species on record: Homo sapiens; experiment: Selectivity for ROCK1 over MSK1
# Homo sapiens [4] = species on record: Homo sapiens; experiment: Selectivity for ROCK1 over p70S6K
# [5] = molecular target: Rho-associated protein kinase 1 (Homo sapiens, UniProt Q13464); experiment: Inhibition of human ROCK1 in Sf9 cells; type: cell-based
# Chain of Rho-associated protein kinase 1 (Q13464 whole entry): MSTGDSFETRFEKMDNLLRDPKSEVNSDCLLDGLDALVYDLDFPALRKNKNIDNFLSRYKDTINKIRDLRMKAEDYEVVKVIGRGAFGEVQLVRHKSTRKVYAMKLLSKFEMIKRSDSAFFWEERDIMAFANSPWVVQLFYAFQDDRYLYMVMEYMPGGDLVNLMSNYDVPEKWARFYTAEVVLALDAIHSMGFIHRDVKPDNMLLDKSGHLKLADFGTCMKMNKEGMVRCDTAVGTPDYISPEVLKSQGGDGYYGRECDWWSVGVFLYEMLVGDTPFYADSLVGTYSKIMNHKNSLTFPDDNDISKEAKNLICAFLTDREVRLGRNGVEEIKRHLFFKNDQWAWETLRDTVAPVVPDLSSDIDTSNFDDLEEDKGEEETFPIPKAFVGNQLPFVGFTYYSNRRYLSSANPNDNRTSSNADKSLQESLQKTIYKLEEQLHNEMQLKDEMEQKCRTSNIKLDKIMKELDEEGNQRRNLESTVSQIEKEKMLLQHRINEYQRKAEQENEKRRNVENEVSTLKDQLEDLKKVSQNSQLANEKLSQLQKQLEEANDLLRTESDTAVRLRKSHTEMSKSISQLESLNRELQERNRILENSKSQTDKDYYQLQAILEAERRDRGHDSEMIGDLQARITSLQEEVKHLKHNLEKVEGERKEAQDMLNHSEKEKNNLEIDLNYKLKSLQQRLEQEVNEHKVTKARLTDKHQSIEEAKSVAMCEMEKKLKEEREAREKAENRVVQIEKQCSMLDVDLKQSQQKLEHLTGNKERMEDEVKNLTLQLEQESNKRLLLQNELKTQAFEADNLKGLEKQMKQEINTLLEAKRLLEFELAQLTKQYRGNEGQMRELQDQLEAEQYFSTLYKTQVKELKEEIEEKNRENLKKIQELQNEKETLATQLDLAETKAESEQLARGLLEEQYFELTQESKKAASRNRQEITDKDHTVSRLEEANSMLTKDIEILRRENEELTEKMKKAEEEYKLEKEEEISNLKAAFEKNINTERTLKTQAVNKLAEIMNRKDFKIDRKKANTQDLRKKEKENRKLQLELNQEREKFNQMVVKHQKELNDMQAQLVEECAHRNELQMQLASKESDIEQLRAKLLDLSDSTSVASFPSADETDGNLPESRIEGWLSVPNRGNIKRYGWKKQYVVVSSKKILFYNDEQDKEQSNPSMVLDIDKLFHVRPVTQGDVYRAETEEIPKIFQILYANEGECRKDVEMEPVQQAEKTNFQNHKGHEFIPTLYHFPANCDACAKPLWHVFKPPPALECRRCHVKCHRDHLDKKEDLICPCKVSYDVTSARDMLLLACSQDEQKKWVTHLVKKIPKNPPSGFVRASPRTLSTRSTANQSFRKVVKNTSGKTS
# [6] = Half life in Sprague-Dawley rat at 1.2 mg/kg, iv; type: ADME, organism-based; parameters: dose 1.2 mg/kg, route intravenous; details: in vivo
# [7] = Clearance in Sprague-Dawley rat at 1.2 mg/kg, iv; type: ADME, organism-based; parameters: dose 1.2 mg/kg, route intravenous; details: in vivo
# [8] = Volume of distribution in Sprague-Dawley rat at 1.2 mg/kg, iv; type: ADME, organism-based; parameters: dose 1.2 mg/kg, route intravenous; details: in vivo, read-out: Vdss
# [9] = Oral bioavailability in Sprague-Dawley rat at 3.7 mg/kg, po; type: ADME, organism-based; details: in vivo
# [10] = Cmax in Sprague-Dawley rat at 3.7 mg/kg, po; type: ADME, organism-based; parameters: dose 3.7 mg/kg, route oral; details: in vivo
# Aorta = experiment: Relaxation of phenylephrine contracted Sprague-Dawley rat aortic rings; type: functional, tissue-based
# [11] = Cmax in Sprague-Dawley rat at 1.2 mg/kg, iv; type: ADME, organism-based; parameters: dose 1.2 mg/kg, route intravenous; details: in vivo
# [12] = Cmax in Sprague-Dawley rat at 0.85 mg/kg, iv; type: ADME, organism-based; parameters: dose 0.85 mg/kg, route intravenous; details: in vivo
# [13] = Cmax in Sprague-Dawley rat at 2 mg/kg, po; type: ADME, organism-based; parameters: dose 2 mg/kg, route oral; details: in vivo
# [14] = Half life in Sprague-Dawley rat at 0.85 mg/kg, iv; type: ADME, organism-based; parameters: dose 0.85 mg/kg, route intravenous; details: in vivo
# [15] = Clearance in Sprague-Dawley rat at 0.85 mg/kg, iv; type: ADME, organism-based; parameters: dose 0.85 mg/kg, route intravenous; details: in vivo
# [16] = Volume of distribution in Sprague-Dawley rat at 0.85 mg/kg; type: ADME, organism-based; parameters: dose 0.85 mg/kg; details: in vivo, read-out: Vdss
# [17] = Oral bioavailability in Sprague-Dawley rat at 2 mg/kg, po; type: ADME, organism-based; details: in vivo
# Rattus norvegicus [18] = experiment: Reduction of mean arterial blood pressure in spontaneous hypertensive rat at 0.3 mg/kg, po; type: functional, organism-based; parameters: dose 0.3 mg/kg
# Rattus norvegicus [19] = experiment: Reduction of mean arterial blood pressure in spontaneous hypertensive rat at 1 mg/kg, po; type: functional, organism-based; parameters: dose 1 mg/kg
# Rattus norvegicus [20] = experiment: Reduction of mean arterial blood pressure in spontaneous hypertensive rat at 3 mg/kg, po; type: functional, organism-based; parameters: dose 3 mg/kg
# [21] = Plasma concentration in spontaneously hypertensive rat at 3 mg/kg, po after 0.5 hrs; type: ADME, organism-based; parameters: dose 3 mg/kg, route oral
# [22] = Plasma concentration in spontaneously hypertensive rat at 3 mg/kg, po after 1 hr; type: ADME, organism-based; parameters: dose 3 mg/kg, route oral
# [23] = Plasma concentration in spontaneously hypertensive rat at 3 mg/kg, po after 2 hrs; type: ADME, organism-based; parameters: dose 3 mg/kg, route oral
# [24] = Cmax in Sprague-Dawley rat at 1.6 mg/kg, iv; type: ADME, organism-based; parameters: dose 1.6 mg/kg, route intravenous; details: in vivo
# [25] = Cmax in Sprague-Dawley rat at 3.3 mg/kg, po; type: ADME, organism-based; parameters: dose 3.3 mg/kg, route oral; details: in vivo
# [26] = Half life in Sprague-Dawley rat at 1.6 mg/kg, iv; type: ADME, organism-based; parameters: dose 1.6 mg/kg, route intravenous; details: in vivo
# [27] = Clearance in Sprague-Dawley rat at 1.6 mg/kg, iv; type: ADME, organism-based; parameters: dose 1.6 mg/kg, route intravenous; details: in vivo
# [28] = Volume of distribution in Sprague-Dawley rat at 1.6 mg/kg, iv; type: ADME, organism-based; parameters: dose 1.6 mg/kg, route intravenous; details: in vivo, read-out: Vdss
# [29] = Oral bioavailability in Sprague-Dawley rat at 3.3 mg/kg, po; type: ADME, organism-based; details: in vivo
# [30] = Plasma concentration in spontaneously hypertensive rat at 3 mg/kg, po after 4 hrs; type: ADME, organism-based; parameters: dose 3 mg/kg, route oral
# [31] = Plasma concentration in spontaneously hypertensive rat at 3 mg/kg, po after 8 hrs; type: ADME, organism-based; parameters: dose 3 mg/kg, route oral
# [32] = Cmax in Sprague-Dawley rat at 1 mg/kg, iv; type: ADME, organism-based; parameters: dose 1 mg/kg, route intravenous; details: in vivo
# [33] = Cmax in Sprague-Dawley rat at 2.2 mg/kg, po; type: ADME, organism-based; parameters: dose 2.2 mg/kg, route oral; details: in vivo
# [34] = Half life in Sprague-Dawley rat at 1 mg/kg, iv; type: ADME, organism-based; parameters: dose 1 mg/kg, route intravenous; details: in vivo
# [35] = Clearance in Sprague-Dawley rat at 1 mg/kg, iv; type: ADME, organism-based; parameters: dose 1 mg/kg, route intravenous; details: in vivo
# [36] = Volume of distribution in Sprague-Dawley rat at 1 mg/kg, iv; type: ADME, organism-based; parameters: dose 1 mg/kg, route intravenous; details: in vivo, read-out: Vdss
# [37] = Oral bioavailability in Sprague-Dawley rat at 2.2 mg/kg, po; type: ADME, organism-based; details: in vivo
# Homo sapiens [38] = species on record: Homo sapiens; experiment: Selectivity for ROCK1 over CDK2
# [39] = Cmax in Sprague-Dawley rat at 2.1 mg/kg, iv; type: ADME, organism-based; parameters: dose 2.1 mg/kg, route intravenous; details: in vivo
# [40] = Cmax in Sprague-Dawley rat at 2.1 mg/kg, po; type: ADME, organism-based; parameters: dose 2.1 mg/kg, route oral; details: in vivo
# [41] = Half life in Sprague-Dawley rat at 2.1 mg/kg, iv; type: ADME, organism-based; parameters: dose 2.1 mg/kg, route intravenous; details: in vivo
# [42] = Clearance in Sprague-Dawley rat at 2.1 mg/kg, iv; type: ADME, organism-based; parameters: dose 2.1 mg/kg, route intravenous; details: in vivo
# [43] = Volume of distribution in Sprague-Dawley rat at 2.1 mg/kg, iv; type: ADME, organism-based; parameters: dose 2.1 mg/kg, route intravenous; details: in vivo, read-out: Vdss
# [44] = Oral bioavailability in Sprague-Dawley rat at 2.1 mg/kg, po; type: ADME, organism-based; details: in vivo
# [45] = Cmax in Sprague-Dawley rat at 2.4 mg/kg, iv; type: ADME, organism-based; parameters: dose 2.4 mg/kg, route intravenous; details: in vivo
# [46] = Half life in Sprague-Dawley rat at 2.4 mg/kg, iv; type: ADME, organism-based; parameters: dose 2.4 mg/kg, route intravenous; details: in vivo
# [47] = Clearance in Sprague-Dawley rat at 2.4 mg/kg, iv; type: ADME, organism-based; parameters: dose 2.4 mg/kg, route intravenous; details: in vivo
# [48] = Volume of distribution in Sprague-Dawley rat at 2.4 mg/kg, iv; type: ADME, organism-based; parameters: dose 2.4 mg/kg, route intravenous; details: in vivo, read-out: Vdss
compound,measurement,setting,value
CCn1c(-c2nonc2N)nc2cnc(Oc3cccc(S(C)(=O)=O)c3)cc21,Selectivity ratio,Homo sapiens [1],2.7
same,Selectivity ratio,Homo sapiens [2],150
same,Selectivity ratio,Homo sapiens [3],3.9
same,Selectivity ratio,Homo sapiens [4],0.7
same,IC50,[5],33 nM
CCn1c(-c2nonc2N)nc2cnc(Oc3cccc(NC(=O)c4ccccc4)c3)cc21,half-life,[6],9.6 h
same,Selectivity ratio,Homo sapiens [1],3.8
same,clearance,[7],0.18 mL/min/kg
same,Vd,[8],0.16 L/kg
same,bioavailability,[9],35%
same,Cmax,[10],6940 ng/mL
same,IC50,Aorta,106 nM
same,Cmax,[11],11700 ng/mL
same,Selectivity ratio,Homo sapiens [3],2.2
same,Selectivity ratio,Homo sapiens [4],3
same,IC50,[5],4 nM
CCn1c(-c2nonc2N)nc2cnc(Oc3cccc(NC(=O)c4ccc(N(C)C)cc4)c3)cc21 [GSK-248233A],Selectivity ratio,Homo sapiens [1],45
same,IC50,Aorta,106 nM
same,Selectivity ratio,Homo sapiens [3],13
same,Selectivity ratio,Homo sapiens [4],7
same,IC50,[5],2 nM
same,Cmax,[12],18600 ng/mL
same,Cmax,[13],3620 ng/mL
same,half-life,[14],8.6 h
same,clearance,[15],0.14 mL/min/kg
same,Vd,[16],0.09 L/kg
same,bioavailability,[17],11%
CCn1c(-c2nonc2N)nc2cnc(Oc3cccc(NC(=O)c4ccc(OCCN5CCOCC5)cc4)c3)cc21 [GSK-269962A],Activity,Rattus norvegicus [18],Active
same,Activity,Rattus norvegicus [19],Active
same,Activity,Rattus norvegicus [20],Active
same,concentration at 0.5 h,[21],280 ng/mL
same,concentration at 1 h,[22],330 ng/mL
same,concentration at 2 h,[23],290 ng/mL
same,IC50,Aorta,35 nM
same,Cmax,[24],1270 ng/mL
same,Cmax,[25],800 ng/mL
same,half-life,[26],2.2 h
same,clearance,[27],7.6 mL/min/kg
same,Vd,[28],1.3 L/kg
same,bioavailability,[29],78%
same,concentration at 4 h,[30],150 ng/mL
same,concentration at 8 h,[31],88 ng/mL
CCn1c(-c2nonc2N)nc2cnc(Oc3cccc(NC(=O)c4ccc(CN)cc4)c3)cc21,Selectivity ratio,Homo sapiens [1],> 70
same,IC50,Aorta,107 nM
same,Selectivity ratio,Homo sapiens [3],> 70
same,Selectivity ratio,Homo sapiens [4],> 17
same,IC50,[5],≤ 1 nM
same,Cmax,[32],9900 ng/mL
same,Cmax,[33],255 ng/mL
same,half-life,[34],1.4 h
same,clearance,[35],2.3 mL/min/kg
same,Vd,[36],0.11 L/kg
same,bioavailability,[37],4%
CCn1c(-c2nonc2N)nc2cnc(Oc3cccc(NC(C)=O)c3)cc21,Selectivity ratio,Homo sapiens [1],18
same,Selectivity ratio,Homo sapiens [2],> 1000
same,Selectivity ratio,Homo sapiens [38],> 1000
same,Selectivity ratio,Homo sapiens [3],2.8
same,Selectivity ratio,Homo sapiens [4],14
same,IC50,[5],1.8 nM
CCn1c(-c2nonc2N)nc2cnc(Oc3cccc(NC(=O)c4ccc(N5CCOCC5)cc4)c3)cc21,Selectivity ratio,Homo sapiens [1],> 60
same,IC50,Aorta,59 nM
same,Selectivity ratio,Homo sapiens [3],> 26
same,Selectivity ratio,Homo sapiens [4],> 10
same,IC50,[5],≤ 1 nM
same,Cmax,[39],1500 ng/mL
same,Cmax,[40],890 ng/mL
same,half-life,[41],0.9 h
same,clearance,[42],8.6 mL/min/kg
same,Vd,[43],0.57 L/kg
same,bioavailability,[44],23%
CCn1c(-c2nonc2N)nc2cnc(Oc3cccc(NC(=O)c4ccc(OCCN(C)C)cc4)c3)cc21,Selectivity ratio,Homo sapiens [1],> 80
same,IC50,Aorta,79 nM
same,Selectivity ratio,Homo sapiens [3],> 65
same,Selectivity ratio,Homo sapiens [4],> 3
same,IC50,[5],≤ 1 nM
same,Cmax,[45],410 ng/mL
same,Cmax,[25],410 ng/mL
same,half-life,[46],2.1 h
same,clearance,[47],121 mL/min/kg
same,Vd,[48],8.9 L/kg
same,bioavailability,[29],40%
